According to patent US20260262643A1, “HERBICIDAL BENZOXAZINES” (FMC CORPORATION, priority 2022, published 2026):

Experiments:
barnyardgrass [1] = test: Test C preemergence; assay type: in vivo, Echinochloa crusgalli; settings: Preemergence, 1000 g ai/ha; visual rating after 10 days, 0 to 100 scale (0 no effect, 100 complete control)
Description: (§1) Seeds of plant species selected from barnyardgrass (Echinochloa crusgalli), blackgrass (Alopecurus myosuroides), corn (Zea mays), foxtail, giant (giant foxtail, Setaria faberi), green foxtail (Setaria viridis), goosegrass (Eleusine indica), kochia (Bassia scoparia), oat, wild (wild oat, Avena fatua), pigweed, palmer (palmer amaranth, palmer pigweed, Amaranthus palmeri), Pigweed, Redroot (redroot pigweed, Amaranthus retroflexus), ragweed (common ragweed, Ambrosia artemisiifolia), ryegrass, Italian ([…] ryegrass, Lolium multiflorum), soybean (Glycine max), and wheat (Triticum aestivum) were planted into a blend of loam soil and sand and treated preemergence with a directed soil spray using test chemicals formulated in a non-phytotoxic solvent mixture which included a surfactant. At the same time, plants selected from these crops and weed species and also galium (catchweed bedstraw, Galium aparine) and horseweed (Erigeron canadensis) were planted in pots containing the same blend of loam soil and sand and treated with postemergence applications of test chemicals formulated in the same manner. Plants ranged in height from 2 to 10 cm and were in the one- to two-leaf stage for the postemergence treatment. Treated plants and untreated controls were maintained in a greenhouse for 10 days, after which time all treated plants were compared to untreated controls and visually evaluated for injury. Plant response ratings, summarized in Table C, are based on a 0 to 100 scale where 0 is no effect and 100 is complete control. A dash (-) response means no test result.

blackgrass [2] = test: Test C preemergence; assay type: in vivo, Alopecurus myosuroides; settings: Preemergence, 1000 g ai/ha; visual rating after 10 days, 0 to 100 scale (0 no effect, 100 complete control)
Description: as §1

green foxtail [3] = test: Test C preemergence; assay type: in vivo, Setaria viridis; settings: Preemergence, 1000 g ai/ha; visual rating after 10 days, 0 to 100 scale (0 no effect, 100 complete control)
Description: as §1

kochia [4] = test: Test C preemergence; assay type: in vivo, Bassia scoparia; settings: Preemergence, 1000 g ai/ha; visual rating after 10 days, 0 to 100 scale (0 no effect, 100 complete control)
Description: as §1

pigweed, palmer [5] = test: Test C preemergence; assay type: in vivo, Amaranthus palmeri; settings: Preemergence, 1000 g ai/ha; visual rating after 10 days, 0 to 100 scale (0 no effect, 100 complete control)
Description: as §1

ragweed [6] = test: Test C preemergence; assay type: in vivo, Ambrosia artemisiifolia; settings: Preemergence, 1000 g ai/ha; visual rating after 10 days, 0 to 100 scale (0 no effect, 100 complete control)
Description: as §1

ryegrass, Italian [7] = test: Test C preemergence; assay type: in vivo, Lolium multiflorum; settings: Preemergence, 1000 g ai/ha; visual rating after 10 days, 0 to 100 scale (0 no effect, 100 complete control)
Description: as §1

barnyardgrass [8] = test: Test C postemergence; assay type: in vivo, Echinochloa crusgalli; settings: Postemergence, 1000 g ai/ha; 0 to 100 scale, 0 no effect, 100 complete control
Description: as §1

blackgrass [9] = test: Test C postemergence; assay type: in vivo, Alopecurus myosuroides; settings: Postemergence, 1000 g ai/ha
Description: as §1

green foxtail [10] = test: Test C postemergence; assay type: in vivo, Setaria viridis; settings: Postemergence, 1000 g ai/ha
Description: as §1

kochia [11] = test: Test C postemergence; assay type: in vivo, Bassia scoparia; settings: Postemergence, 1000 g ai/ha
Description: as §1

pigweed, palmer [12] = test: Test C postemergence; assay type: in vivo, Amaranthus palmeri; settings: Postemergence, 1000 g ai/ha
Description: as §1

ragweed [13] = test: Test C postemergence; assay type: in vivo, Ambrosia artemisiifolia; settings: Postemergence, 1000 g ai/ha
Description: as §1

ryegrass, Italian [14] = test: Test C postemergence; assay type: in vivo, Lolium multiflorum; settings: Postemergence, 1000 g ai/ha
Description: as §1

galium = test: Test C postemergence; assay type: in vivo, Galium aparine; settings: Postemergence, 1000 g ai/ha; 0 to 100 scale, 0 no effect, 100 complete control
Description: as §1

horseweed = test: Test C postemergence; assay type: in vivo, Erigeron canadensis; settings: Postemergence, 1000 g ai/ha
Description: as §1

[15] = 0 to 100 scale, 0 no effect, 100 complete control
[16] = 10 days, visual 0 to 100 scale (0 no effect, 100 complete control)

For `Cc1ccc(-c2cccc(C(=O)N3C[C@H](C)Oc4c(C)cccc43)c2)cn1` [Compound 159], the “Plant response rating, Barnyardgrass” value (barnyardgrass [1]) was 0, the “Plant response rating, Blackgrass” value (blackgrass [2]) was 0 and the “Plant response rating, Foxtail, Green” value (green foxtail [3]) was 20. For the same molecule, the “Plant response rating, Kochia” value (kochia [4]) was 0, the “Plant response rating, Pigweed, Palmer” value (pigweed, palmer [5]) was 20 and the “Plant response rating, Ragweed” value (ragweed [6]) was 0. The “Plant response rating, Ryegrass, Italian” value (ryegrass, Italian [7]) was 20, the “Plant response rating, Barnyardgrass” value (barnyardgrass [8]) was 10 and the “Plant response rating, Blackgrass” value (blackgrass [9]; [15]) was 0. The “Plant response rating, Foxtail, Green” value (green foxtail [10]; [15]) was 30, the “Plant response rating, Kochia” value (kochia [11]; [15]) was 40 and the “Plant response rating, Pigweed, Palmer” value (pigweed, palmer [12]; [15]) was 20. For the same molecule, the “Plant response rating, Ragweed” value (ragweed [13]; [15]) was 60, the “Plant response rating, Ryegrass, Italian” value (ryegrass, Italian [14]; [15]) was 40 and the “Plant response rating, Galium” value (galium) was 50. The “Plant response rating, Horseweed” value (horseweed; [15]) was 0.

With `Cc1ccc(-c2cccc(C(=O)N3C[C@H](C)Oc4c(C)cccc43)c2)nn1` [Compound 160] the “Plant response rating, Barnyardgrass” value (barnyardgrass [1]) was 30, the “Plant response rating, Blackgrass” value (blackgrass [2]) was 0 and the “Plant response rating, Foxtail, Green” value (green foxtail [3]) was 30. The “Plant response rating, Kochia” value (kochia [4]) was 70, the “Plant response rating, Pigweed, Palmer” value (pigweed, palmer [5]) was 20 and the “Plant response rating, Ragweed” value (ragweed [6]) was 0. The “Plant response rating, Ryegrass, Italian” value (ryegrass, Italian [7]) was 40, the “Plant response rating, Barnyardgrass” value (barnyardgrass [8]) was 10 and the “Plant response rating, Blackgrass” value (blackgrass [9]; [15]) was 20. For the same molecule, the “Plant response rating, Foxtail, Green” value (green foxtail [10]; [15]) was 40, the “Plant response rating, Kochia” value (kochia [11]; [15]) was 70 and the “Plant response rating, Pigweed, Palmer” value (pigweed, palmer [12]; [15]) was 0. For the same molecule, the “Plant response rating, Ragweed” value (ragweed [13]; [15]) was 0, the “Plant response rating, Ryegrass, Italian” value (ryegrass, Italian [14]; [15]) was 0 and the “Plant response rating, Galium” value (galium) was 50. For the same molecule, the “Plant response rating, Horseweed” value (horseweed; [15]) was 0.

`Cc1ncc(-c2cccc(C(=O)N3C[C@H](C)Oc4c(C)cccc43)c2)cn1` [Compound 161] was tested, and the “Plant response rating, Barnyardgrass” value (barnyardgrass [1]) was 50, the “Plant response rating, Blackgrass” value (blackgrass [2]) was 0 and the “Plant response rating, Foxtail, Green” value (green foxtail [3]) was 70. For the same molecule, the “Plant response rating, Kochia” value (kochia [4]) was 30, the “Plant response rating, Pigweed, Palmer” value (pigweed, palmer [5]) was 0 and the “Plant response rating, Ragweed” value (ragweed [6]) was 80. For the same molecule, the “Plant response rating, Ryegrass, Italian” value (ryegrass, Italian [7]) was 80, the “Plant response rating, Barnyardgrass” value (barnyardgrass [8]) was 10 and the “Plant response rating, Blackgrass” value (blackgrass [9]; [15]) was 50. For the same molecule, the “Plant response rating, Foxtail, Green” value (green foxtail [10]; [15]) was 10, the “Plant response rating, Kochia” value (kochia [11]; [15]) was 30 and the “Plant response rating, Pigweed, Palmer” value (pigweed, palmer [12]; [15]) was 0. The “Plant response rating, Ragweed” value (ragweed [13]; [15]) was 50, the “Plant response rating, Ryegrass, Italian” value (ryegrass, Italian [14]; [15]) was 20 and the “Plant response rating, Galium” value (galium) was 50. The “Plant response rating, Horseweed” value (horseweed; [15]) was 10.

In the case of `C[C@H]1CN(C(=O)c2cccc(-n3cccc3)c2)c2cccc(Cl)c2O1` [Compound 222], the “Plant response rating, Barnyardgrass” value (barnyardgrass [1]) is reported as 50, the “Plant response rating, Blackgrass” value (blackgrass [2]) is reported as 70 and the “Plant response rating, Foxtail, Green” value (green foxtail [3]) is reported as 100. The “Plant response rating, Kochia” value (kochia [4]) was 20, the “Plant response rating, Pigweed, Palmer” value (pigweed, palmer [5]) was 50 and the “Plant response rating, Ragweed” value (ragweed [6]) was 0. The “Plant response rating, Ryegrass, Italian” value (ryegrass, Italian [7]) was 70, the “Plant response rating, Barnyardgrass” value (barnyardgrass [8]) was 20 and the “Plant response rating, Blackgrass” value (blackgrass [9]; [16]) was 50. The “Plant response rating, Foxtail, Green” value (green foxtail [10]; [16]) was 40, the “Plant response rating, Kochia” value (kochia [11]; [16]) was 60 and the “Plant response rating, Pigweed, Palmer” value (pigweed, palmer [12]; [16]) was 60. The “Plant response rating, Ragweed” value (ragweed [13]; [16]) was 0, the “Plant response rating, Ryegrass, Italian” value (ryegrass, Italian [14]; [16]) was 50 and the “Plant response rating, Horseweed” value (horseweed; [16]) was 0.
